Consider five compounds from ChEMBL document CHEMBL1201862, “PubChem BioAssay data set” (2004).

Calls of active or inactive are those of the source.

Test [1] deals with Peroxisome proliferator-activated receptor gamma/Nuclear receptor coactivator 2 (Homo sapiens, UniProt P37231). Put plainly: TR-FRET dose response biochemical High Throughput Screening assay for agonists of the steroid receptor coactivator 2 (SRC-2) recruitment by the peroxisome proliferator-activated receptor gamma (PPAR gamma): non-selective agonists. [Related pubchem assays: 1297, 1032 ]. The class given is functional. (Time-resolved FRET reads energy transfer from a long-lived donor to a nearby acceptor.)

Test [2] deals with Peroxisome proliferator-activated receptor gamma/Nuclear receptor coactivator 1 (Homo sapiens, UniProt P37231). Put plainly: TR-FRET dose response biochemical High Throughput Screening assay for agonists of the steroid receptor coactivator 1 (SRC-1) recruitment by the peroxisome proliferator-activated receptor gamma (PPAR gamma): non-selective agonists. [Related pubchem assays (depositor defined):AID1300, AID1808, AID504735, AID631]. The class given is protein assay.
Sequence of Peroxisome proliferator-activated receptor gamma/Nuclear receptor coactivator 1 (P37231 whole entry): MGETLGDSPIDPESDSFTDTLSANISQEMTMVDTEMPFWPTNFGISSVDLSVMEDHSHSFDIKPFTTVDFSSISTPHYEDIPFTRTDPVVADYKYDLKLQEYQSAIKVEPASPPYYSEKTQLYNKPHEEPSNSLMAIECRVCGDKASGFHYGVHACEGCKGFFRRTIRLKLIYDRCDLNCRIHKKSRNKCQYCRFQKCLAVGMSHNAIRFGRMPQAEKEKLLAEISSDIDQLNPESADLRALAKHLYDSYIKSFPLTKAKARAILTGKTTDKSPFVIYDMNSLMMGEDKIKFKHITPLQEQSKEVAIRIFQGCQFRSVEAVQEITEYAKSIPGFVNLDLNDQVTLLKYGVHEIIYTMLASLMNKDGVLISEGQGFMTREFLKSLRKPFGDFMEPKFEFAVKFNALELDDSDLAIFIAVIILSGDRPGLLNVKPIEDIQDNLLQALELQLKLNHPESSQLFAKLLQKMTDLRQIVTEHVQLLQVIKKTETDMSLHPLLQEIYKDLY
Sequence of Peroxisome proliferator-activated receptor gamma/Nuclear receptor coactivator 1 (Q15788 whole entry, further chain): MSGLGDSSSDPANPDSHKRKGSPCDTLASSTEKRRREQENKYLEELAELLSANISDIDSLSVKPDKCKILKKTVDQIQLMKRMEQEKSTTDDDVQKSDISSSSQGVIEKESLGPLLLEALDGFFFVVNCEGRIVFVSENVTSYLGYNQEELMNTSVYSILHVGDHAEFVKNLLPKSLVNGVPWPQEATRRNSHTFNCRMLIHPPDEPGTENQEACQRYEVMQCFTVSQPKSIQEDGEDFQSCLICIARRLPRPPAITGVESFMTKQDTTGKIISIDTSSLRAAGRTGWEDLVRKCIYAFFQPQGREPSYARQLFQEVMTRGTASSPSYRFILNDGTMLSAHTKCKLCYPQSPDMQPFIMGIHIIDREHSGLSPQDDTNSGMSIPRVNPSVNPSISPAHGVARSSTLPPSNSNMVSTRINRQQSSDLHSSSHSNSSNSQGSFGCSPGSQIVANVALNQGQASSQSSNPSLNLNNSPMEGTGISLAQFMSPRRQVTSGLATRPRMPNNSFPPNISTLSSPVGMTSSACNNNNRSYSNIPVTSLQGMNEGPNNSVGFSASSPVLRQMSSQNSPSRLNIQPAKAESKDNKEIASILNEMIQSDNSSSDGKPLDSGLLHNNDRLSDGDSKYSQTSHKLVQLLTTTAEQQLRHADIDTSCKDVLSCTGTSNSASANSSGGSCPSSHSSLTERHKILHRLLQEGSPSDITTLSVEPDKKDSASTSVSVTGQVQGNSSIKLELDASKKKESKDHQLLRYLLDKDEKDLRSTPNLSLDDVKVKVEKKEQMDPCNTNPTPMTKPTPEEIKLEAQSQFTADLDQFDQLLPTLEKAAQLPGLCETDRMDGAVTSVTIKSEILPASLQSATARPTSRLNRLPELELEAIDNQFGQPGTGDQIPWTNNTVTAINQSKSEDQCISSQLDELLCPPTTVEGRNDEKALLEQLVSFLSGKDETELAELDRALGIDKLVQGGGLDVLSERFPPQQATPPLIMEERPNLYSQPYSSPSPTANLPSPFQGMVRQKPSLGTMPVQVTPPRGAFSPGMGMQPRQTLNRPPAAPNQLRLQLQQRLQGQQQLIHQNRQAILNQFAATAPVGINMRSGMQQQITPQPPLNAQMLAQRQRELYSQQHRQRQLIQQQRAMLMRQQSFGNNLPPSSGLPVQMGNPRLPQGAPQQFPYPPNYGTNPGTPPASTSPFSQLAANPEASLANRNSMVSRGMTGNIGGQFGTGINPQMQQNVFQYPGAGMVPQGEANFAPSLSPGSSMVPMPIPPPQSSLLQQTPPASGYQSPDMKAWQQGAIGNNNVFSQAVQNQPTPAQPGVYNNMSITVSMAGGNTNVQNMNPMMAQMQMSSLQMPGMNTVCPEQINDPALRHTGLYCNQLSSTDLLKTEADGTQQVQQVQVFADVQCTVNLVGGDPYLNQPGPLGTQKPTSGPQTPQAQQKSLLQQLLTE

The target in test [3] is Peroxisome proliferator-activated receptor gamma/Nuclear receptor coactivator 3 (Homo sapiens, UniProt P37231). Put plainly: TR-FRET dose response biochemical High Throughput Screening assay for agonists of the steroid receptor coactivator 3 (SRC-3) recruitment by the peroxisome proliferator-activated receptor gamma (PPAR gamma): non-selective agonists. [Related pubchem assays: 1301 (Confirmation screen.), 1048 (Primary screen.)]. It counts as functional.
Sequence of Peroxisome proliferator-activated receptor gamma/Nuclear receptor coactivator 3 (P37231 whole entry): as the sequence (P37231 whole entry) above
Sequence of Peroxisome proliferator-activated receptor gamma/Nuclear receptor coactivator 3 (Q9Y6Q9 whole entry, further chain): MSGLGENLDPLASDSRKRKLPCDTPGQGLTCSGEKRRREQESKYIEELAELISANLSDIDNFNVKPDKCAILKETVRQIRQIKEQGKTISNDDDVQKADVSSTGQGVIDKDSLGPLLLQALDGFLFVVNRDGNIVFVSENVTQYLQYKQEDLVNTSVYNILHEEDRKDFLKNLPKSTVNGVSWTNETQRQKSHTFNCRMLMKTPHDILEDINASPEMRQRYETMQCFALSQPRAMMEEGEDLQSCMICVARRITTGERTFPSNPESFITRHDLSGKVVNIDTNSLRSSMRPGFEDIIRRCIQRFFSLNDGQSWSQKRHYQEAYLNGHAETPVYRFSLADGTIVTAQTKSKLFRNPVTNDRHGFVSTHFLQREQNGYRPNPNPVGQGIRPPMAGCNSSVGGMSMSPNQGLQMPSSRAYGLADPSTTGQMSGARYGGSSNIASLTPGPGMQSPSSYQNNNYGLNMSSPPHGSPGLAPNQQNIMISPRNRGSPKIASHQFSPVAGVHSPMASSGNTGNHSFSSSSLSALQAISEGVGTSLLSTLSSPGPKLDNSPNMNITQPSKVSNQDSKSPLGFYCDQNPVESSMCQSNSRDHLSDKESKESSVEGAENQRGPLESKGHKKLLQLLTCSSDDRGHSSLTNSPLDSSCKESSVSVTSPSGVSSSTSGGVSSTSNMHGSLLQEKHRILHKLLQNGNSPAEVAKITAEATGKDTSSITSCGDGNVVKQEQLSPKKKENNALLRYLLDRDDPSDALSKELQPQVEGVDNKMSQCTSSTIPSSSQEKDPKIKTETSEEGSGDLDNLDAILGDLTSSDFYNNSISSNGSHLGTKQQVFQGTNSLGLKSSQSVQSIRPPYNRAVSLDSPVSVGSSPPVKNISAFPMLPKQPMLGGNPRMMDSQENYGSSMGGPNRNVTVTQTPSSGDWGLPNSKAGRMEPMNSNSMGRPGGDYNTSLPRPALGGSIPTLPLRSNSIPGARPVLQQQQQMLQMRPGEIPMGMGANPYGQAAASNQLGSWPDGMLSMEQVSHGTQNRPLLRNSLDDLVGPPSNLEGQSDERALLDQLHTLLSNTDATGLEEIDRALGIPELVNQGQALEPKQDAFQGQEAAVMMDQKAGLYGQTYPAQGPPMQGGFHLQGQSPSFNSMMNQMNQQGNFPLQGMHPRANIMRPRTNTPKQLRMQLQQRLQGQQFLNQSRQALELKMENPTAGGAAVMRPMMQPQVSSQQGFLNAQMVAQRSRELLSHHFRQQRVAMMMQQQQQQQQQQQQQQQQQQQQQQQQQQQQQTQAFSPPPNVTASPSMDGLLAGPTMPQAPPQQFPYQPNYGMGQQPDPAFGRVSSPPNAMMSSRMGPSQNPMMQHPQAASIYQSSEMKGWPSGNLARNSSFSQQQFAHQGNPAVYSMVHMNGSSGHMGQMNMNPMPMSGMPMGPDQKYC

In another test the test system is T-cell. Nature of the test: inhibitors of CD8+ T cell–vesicle binding, dose response, mouse 2C CD8+ T cells, flow cytometry (AID 485284). It counts as functional.
The next test addresses Coagulation factor XII (Homo sapiens, UniProt P00748). It counts as functional.
The target in another test is Prothrombin (Homo sapiens, UniProt P00734). Put plainly: Thrombin 1536 HTS Dose Response Confirmation. [Related pubchem assays: 1046 (Thrombin 1536 HTS; hits were confirmed in this assay)]. It counts as functional.
Test [4] addresses T1, Tyrosine-protein phosphatase non-receptor type 22 (Homo sapiens, UniProt Q9Y2R2).
T1 sequence (Q9Y2R2 whole entry): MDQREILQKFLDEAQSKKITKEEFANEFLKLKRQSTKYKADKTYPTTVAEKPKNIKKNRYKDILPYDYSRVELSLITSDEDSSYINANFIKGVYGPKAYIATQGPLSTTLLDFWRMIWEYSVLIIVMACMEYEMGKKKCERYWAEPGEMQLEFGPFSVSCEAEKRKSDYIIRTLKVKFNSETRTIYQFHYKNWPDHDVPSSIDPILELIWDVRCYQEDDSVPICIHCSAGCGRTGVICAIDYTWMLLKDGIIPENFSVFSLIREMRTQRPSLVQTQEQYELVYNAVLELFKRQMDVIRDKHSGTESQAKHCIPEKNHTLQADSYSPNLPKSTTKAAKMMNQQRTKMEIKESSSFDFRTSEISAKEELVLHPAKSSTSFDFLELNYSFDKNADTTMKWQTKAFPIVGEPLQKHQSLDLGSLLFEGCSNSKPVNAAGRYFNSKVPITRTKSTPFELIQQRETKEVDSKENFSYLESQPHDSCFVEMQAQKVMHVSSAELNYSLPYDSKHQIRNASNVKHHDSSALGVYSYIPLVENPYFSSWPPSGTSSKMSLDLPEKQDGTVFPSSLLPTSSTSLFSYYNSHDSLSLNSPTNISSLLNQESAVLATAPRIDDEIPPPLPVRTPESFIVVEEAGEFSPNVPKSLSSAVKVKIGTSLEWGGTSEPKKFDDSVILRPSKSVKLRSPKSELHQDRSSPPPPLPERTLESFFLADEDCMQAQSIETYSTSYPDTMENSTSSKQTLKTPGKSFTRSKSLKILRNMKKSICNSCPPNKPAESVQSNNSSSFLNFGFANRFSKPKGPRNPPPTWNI
It counts as functional.

For test [5], the target named is T1, Tyrosine-protein phosphatase non-receptor type 22. The class given is functional. This is another data set of the same source.
Test [6] concerns the target T2, Tyrosine-protein phosphatase non-receptor type 7 (Homo sapiens, UniProt P35236).
T2 sequence (P35236 whole entry): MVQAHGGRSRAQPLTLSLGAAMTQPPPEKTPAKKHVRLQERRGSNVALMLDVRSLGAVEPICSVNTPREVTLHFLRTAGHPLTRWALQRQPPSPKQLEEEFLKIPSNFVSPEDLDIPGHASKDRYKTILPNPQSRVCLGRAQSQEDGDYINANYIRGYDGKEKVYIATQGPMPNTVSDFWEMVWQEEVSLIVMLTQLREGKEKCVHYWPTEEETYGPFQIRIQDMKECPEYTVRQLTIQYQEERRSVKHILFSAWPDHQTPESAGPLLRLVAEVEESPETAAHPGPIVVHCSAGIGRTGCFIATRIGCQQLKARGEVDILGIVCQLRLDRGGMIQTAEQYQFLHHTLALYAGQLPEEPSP
It counts as functional.

For a further test, the target named is Troponin, cardiac muscle (Homo sapiens, UniProt P19429+P45379+P63316). Nature of the test: Fluorescence-based biochemical high throughput dose response assay for activators of the calcium sensitivity of cardiac Regulated Thin Filaments (RTF). [Related pubchem assays (depositor defined):AID493008, AID493018, AID504382, AID504383]. It counts as protein-complex assay.

Sequence of Coagulation factor XII (P00748 20-372 limits assumed): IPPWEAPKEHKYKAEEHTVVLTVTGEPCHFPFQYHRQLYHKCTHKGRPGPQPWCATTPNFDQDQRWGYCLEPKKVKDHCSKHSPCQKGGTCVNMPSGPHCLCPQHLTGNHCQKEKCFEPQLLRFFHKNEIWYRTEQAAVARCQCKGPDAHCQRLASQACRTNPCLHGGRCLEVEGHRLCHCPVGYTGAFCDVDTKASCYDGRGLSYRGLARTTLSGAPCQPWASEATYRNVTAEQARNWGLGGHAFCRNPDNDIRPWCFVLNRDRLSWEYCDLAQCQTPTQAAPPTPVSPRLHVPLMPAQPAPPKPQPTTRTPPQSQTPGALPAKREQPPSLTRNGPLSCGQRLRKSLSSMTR
Sequence of Coagulation factor XII (P00748 373-615 limits assumed): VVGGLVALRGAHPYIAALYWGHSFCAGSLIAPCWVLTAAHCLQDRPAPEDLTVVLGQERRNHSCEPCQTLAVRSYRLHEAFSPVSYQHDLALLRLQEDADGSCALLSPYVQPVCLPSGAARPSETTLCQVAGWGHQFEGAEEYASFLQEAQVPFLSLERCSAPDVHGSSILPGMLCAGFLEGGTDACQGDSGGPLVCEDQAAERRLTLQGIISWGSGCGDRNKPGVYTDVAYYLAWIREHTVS

Usually EC50 stands for the midpoint of the concentration-response curve. As to `Cc1ccccc1Nc1nc(-c2ccccc2)c(C(=O)Nc2cccnc2)s1`, the EC50 in test [1] was 11.6 µM (not active); in [2] it was 12.6 µM (inactive); in [3] it was > 79.4 µM (not active).
As for `COc1ccc(C2=CC(=O)C[C@H](c3ccc4c(c3)OCO4)C2)cn1`, the concentration giving a half-maximal response (EC50) with T-cell is 19.9 µM (active).
In general, IC50 refers to the midpoint of a concentration-inhibition curve. For `COCCNC(=S)NN=C1CCCCCC1`, the IC50 at Coagulation factor XII is > 50 µM (inactive); on Prothrombin, > 50 µM (not active).
As to `CSc1nsc(SCC(=O)Nc2cccc(C(C)=O)c2)n1`, the IC50 in test [4], in test [5] and in test [6] was > 79.4 µM (inactive) in each case.
Turning to `CCOC(=O)N1CCN(C(S)=Nc2ccccc2C)CC1`, the EC50 on Troponin, cardiac muscle is > 71.4 µM (inactive).
